Results reported in publication PMC9369325, “MATE1 Deficiency Exacerbates Dofetilide-Induced Proarrhythmia” (International Journal of Molecular Sciences, 2022).

What was measured:
human MATE1 = biological target: T1, human MATE1 (Homo sapiens, UniProt Q96FL8); test: cell-based
T1 sequence (Q96FL8 1-570): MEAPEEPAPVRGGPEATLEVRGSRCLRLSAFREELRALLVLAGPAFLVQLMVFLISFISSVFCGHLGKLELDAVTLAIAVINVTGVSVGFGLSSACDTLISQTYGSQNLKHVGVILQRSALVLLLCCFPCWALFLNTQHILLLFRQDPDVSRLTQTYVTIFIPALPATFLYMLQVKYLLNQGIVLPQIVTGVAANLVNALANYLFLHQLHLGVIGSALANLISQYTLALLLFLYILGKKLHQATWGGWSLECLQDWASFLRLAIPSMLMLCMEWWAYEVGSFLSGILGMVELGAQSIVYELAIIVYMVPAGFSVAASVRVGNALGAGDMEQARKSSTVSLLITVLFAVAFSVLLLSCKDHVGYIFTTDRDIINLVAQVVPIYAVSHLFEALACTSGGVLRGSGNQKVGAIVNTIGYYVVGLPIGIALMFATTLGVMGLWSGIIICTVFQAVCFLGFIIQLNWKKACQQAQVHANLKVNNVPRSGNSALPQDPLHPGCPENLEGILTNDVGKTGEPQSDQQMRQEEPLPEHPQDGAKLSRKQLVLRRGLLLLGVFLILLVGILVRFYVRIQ

MATE1 (SLC47A1) = biological target: T2, MATE1 (SLC47A1) (Homo sapiens, UniProt Q96FL8); test: in vitro; conditions: HEK293 cells overexpressing human MATE1
T2 sequence (Q96FL8 1-570): T1 sequence (Q96FL8 1-570)

[1] = system: cardiomyocytes isolated from wild-type or MATE1-deficient mice; test: Ex vivo cardiomyocyte uptake of [3H] dofetilide; format: cell-based, mouse; conditions: [3H] dofetilide 2 µM; cardiomyocytes from MATE1-/- vs wild-type mice
Experimental: Briefly, hearts from wild-type and MATE1-deficient mice were quickly removed and perfused on a Langendorff’s apparatus at 37 °C. After a 5 min perfusion with Ca^2+-free tyrode solution containing (in mM): 140 NaCl, 5.4 KCl 0.5 MgCl2, 10 Hepes and 5.6 glucose; pH 7.3, the perfusate was then switched to tyrode solution containing Liberase Blendzymes (Roche, Applied Science, IN) for digestion of the connective tissue. After 20 min of digestion, cardiomyocytes were isolated from dissected and triturated hearts and stabilized in BSA containing tyrode solution.
Isolated cardiomyocytes were then plated in 12 well plates containing Ca^2+ and Mg^2+ free Hank’s balanced salt solution.

[2] = humans; cited from earlier work
human (h) MATE1 = biological target: T3, human (h) MATE1 (Homo sapiens, UniProt Q96FL8); test: Uptake of [14C] TEA and [14C] metformin in HEK293 cells overexpressing human MATE1 after preincubation with dofetilide; format: cell-based; conditions: dofetilide 1-50 µM, preincubation 15 min; TEA 2 µM, metformin 5 µM
T3 construct: host or cells: HEK293 (Flp-In system, pcDNA5/FRT vector)
T3 sequence (Q96FL8 1-570): T1 sequence (Q96FL8 1-570)
Experimental: In brief, cells were seeded in 12- or 24-well plates in phenol red-free DMEM containing 10% FBS, and were incubated at 37 °C for 24 h. […] Uptake studies were performed with [^14C] […]
overexpressing mouse (m) OCT2, OCTN1, or MATE1. Relative uptake is expressed as percentage change compared with empty vector controls (n = 3). (B) Uptake of [14C] TEA (2 µM) and [14C] metformin (5 µM) in HEK293 cells […]
followed by the co-incubation with TEA and metformin for 15 min. Data represent the mean ± SEM and are expressed as a percentage over vector control. (C) Gene expression of MATE1 in the kidney isolated from untreated male and female wild-type mice (n = 4 per group). (D) Protein expression of MATE1 in the heart isolated from untreated wild-type (WT) and MATE1-/- mice (n=3). Immunohistochemical detection of MATE1 (bottom panels) in the wild-type mouse heart (E) and kidney (F). Tissue staining lacking the primary antibody was performed as a negative control for each tissue group (top panels). Representative images were taken at x40 magnification. (G) […]
(also on this page, place not known: hMATE1 (% Control) mOCT2mOCTN1mMA TE 1 No PrimaryMATE1 Relative Uptake in of) […]

In the case of CCC(C)n1ncn(-c2ccc(N3CCN(c4ccc(OCC5COC(Cn6cncn6)(c6ccc(Cl)cc6Cl)O5)cc4)CC3)cc2)c1=O (stereo not shown) [Itraconazole, itraconazole], the IC50 (human MATE1) is reported as 320 nM.

For CC(=O)N1CCN(c2ccc(OCC3COC(Cn4ccnc4)(c4ccc(Cl)cc4Cl)O3)cc2)CC1 (stereo not shown) [Ketoconazole, ketoconazole], the IC50 (human MATE1) was 170 nM.

COc1cc2c(Nc3ccc(Br)cc3F)ncnc2cc1OCC1CCN(C)CC1 [Vandetanib, vandetanib] showed an IC50 (human MATE1) of 130 nM.

For CN(CCOc1ccc(NS(C)(=O)=O)cc1)CCc1ccc(NS(C)(=O)=O)cc1 [dofetilide], the Km at 2 min (MATE1 (SLC47A1)) is listed as 6.72 ± 1.71 µM, the “accumulation of dofetilide in cardiomyocytes” value [1] is listed as “significantly increased in the absence of MATE1” and the “higher dofetilide plasma concentrations in females than males” value [2] is listed as 14–22%. The “inhibition of MATE1-dependent transport of TEA and metformin” value (human (h) MATE1) was “dose-dependently inhibit”.
